Series [1] deals with Cyperus serotinus, Rottb. Put plainly: Preemergence weed control under flooded paddy conditions, CYPSE (Flatsedge). In kind it is in vivo. The following applies: preemergence, rated 3-4 weeks after treatment.
Series [2] relates to Sagittaria pygmaea, L. Put plainly: Preemergence weed control under flooded paddy conditions, SAGPY (Arrowhead (Pygmaea)). In kind it is in vivo. As to conditions: preemergence, flooded paddy, rated 3-4 weeks after treatment.
Series [3] deals with Monochoria vaginalis, Presl. Put plainly: Preemergence weed control under flooded paddy conditions, MOOVA (Monochoria). In kind it is in vivo. As to conditions: preemergence, flooded paddy, rated 3-4 weeks after treatment.
Series [4] has as its system Oryza sativa, (L.) Tebonnet. Put plainly: Rice tolerance to post-transplant applications under flooded paddy conditions (Example 187), ORYSAT (Rice, Tebonnet). As to conditions: rated 3-4 weeks after treatment.
Series [5] has as its system Echinochloa oryzoides (Ard.) Fritsch. Put plainly: Preemergence weed control under flooded paddy conditions, ECHORC (Watergrass (Calif.)). In kind it is in vivo. As to conditions: preemergence, flooded paddy, rated 3-4 weeks after treatment.
Series [6] relates to Cyperus iria. Put plainly: Preemergence weed control under flooded paddy conditions, CYPIR (Rice Flatsedge). In kind it is in vivo. As to conditions: preemergence, flooded paddy, rated 3-4 weeks after treatment.

The record followed here is patent EP0908457B1, “3-(1,2-benzisothiazol- and isoxazol-5-Y1)-2,4(1H,3H)-pyrimidinedione or thione and 3-(1,2-benzisothiazol- and isoxazol-5-y1)-4(3H)-pyrimidinone or thione herbicidal agents” (BASF AKTIENGESELLSCHAFT, priority 1997, dated 1999).

The structures appear in SMILES notation.
Also: meaning of each grade not given here.

For the molecule `Cc1nsc2ccc(-n3c(=O)cc(C(F)(F)F)n(CCF)c3=O)cc12` [Example 516, 2,4(1H,3H)-Pyrimidinedione, 1-(2-fluoroethyl)-3-(3-methyl-1,2-benzisothiazol-5-yl)-6-(trifluoromethyl)-], the “herbicidal effect rating, CYPSE” value in series [1] (Rate 0.0320 kg/ha), in series [1] (Rate 0.0620 kg/ha), in series [1] (Rate 0.1250 kg/ha) and in series [1] (Rate 0.2500 kg/ha) was 0.0 each time. In addition, the “herbicidal effect rating, SAGPY” value in series [2] (Rate 0.0320 kg/ha), in series [2] (Rate 0.0620 kg/ha), in series [2] (Rate 0.1250 kg/ha) and in series [2] (Rate 0.2500 kg/ha) was 0.0 in each case. Besides, the “herbicidal effect rating, MOOVA” value was 4.0 in series [3] (Rate 0.0320 kg/ha), 6.0 in series [3] (Rate 0.0620 kg/ha), 8.0 in series [3] (Rate 0.1250 kg/ha) and 9.0 in series [3] (Rate 0.2500 kg/ha). Moreover, the “herbicidal effect rating ORYSAT” value in series [4] (Rate 0.0320 kg/ha) is reported as 0.0; in series [4] (Rate 0.0620 kg/ha) it was 1.0; in series [4] (Rate 0.1250 kg/ha) it was 2.0; in series [4] (Rate 0.2500 kg/ha), 3.0. The “herbicidal effect rating, ECHORC” value in series [5] (Rate 0.0320 kg/ha), in series [5] (Rate 0.0620 kg/ha), in series [5] (Rate 0.1250 kg/ha) and in series [5] (Rate 0.2500 kg/ha) was 0.0 throughout. Moreover, the “herbicidal effect rating, CYPIR” value was found to be 0.0 in series [6] (Rate 0.0320 kg/ha), 0.0 in series [6] (Rate 0.0620 kg/ha), 0.0 in series [6] (Rate 0.1250 kg/ha) and 2.0 in series [6] (Rate 0.2500 kg/ha).

For the molecule `CSCCCCOC(=O)COc1ccc(C)cc1-c1nsc2ccc(-n3c(=O)cc(C(F)(F)F)n(C)c3=O)cc12` [Example 518, Acetic acid, {{2-{5-[3,6-dihydro-3-methyl-2,6-dioxo-4-(trifluoromethyl)-1(2H)-pyrimidinyl]-1,2-benzisothiazol-3-yl}-p-tolyl}oxy}-, 4-(methylthio)butyl ester], the “herbicidal effect rating, CYPSE” value in series [1] (Rate 0.0320 kg/ha), in series [1] (Rate 0.0620 kg/ha), in series [1] (Rate 0.1250 kg/ha) and in series [1] (Rate 0.2500 kg/ha) was 0.0 in each case. Moreover, the “herbicidal effect rating, SAGPY” value in series [2] (Rate 0.0320 kg/ha), in series [2] (Rate 0.0620 kg/ha), in series [2] (Rate 0.1250 kg/ha) and in series [2] (Rate 0.2500 kg/ha) was 0.0 each time. In addition, the “herbicidal effect rating, MOOVA” value in series [3] (Rate 0.0320 kg/ha) is 4.0; in series [3] (Rate 0.0620 kg/ha), 7.0; in series [3] (Rate 0.1250 kg/ha), 9.0; in series [3] (Rate 0.2500 kg/ha), 9.0. Also, the “herbicidal effect rating ORYSAT” value in series [4] (Rate 0.0320 kg/ha) came out at 1.0; in series [4] (Rate 0.0620 kg/ha) it was 2.0; in series [4] (Rate 0.1250 kg/ha), 4.0; in series [4] (Rate 0.2500 kg/ha), 4.0. Moreover, the “herbicidal effect rating, ECHORC” value in series [5] (Rate 0.0320 kg/ha) is given as 0.0; in series [5] (Rate 0.0620 kg/ha), 2.0; in series [5] (Rate 0.1250 kg/ha), 4.0; in series [5] (Rate 0.2500 kg/ha), 7.0. The “herbicidal effect rating, CYPIR” value stood at 0.0 in series [6] (Rate 0.0320 kg/ha), 2.0 in series [6] (Rate 0.0620 kg/ha), 2.0 in series [6] (Rate 0.1250 kg/ha) and 4.0 in series [6] (Rate 0.2500 kg/ha).

Regarding `CCCCCCCCCOC(=O)COc1ccc(C)cc1-c1nsc2ccc(-n3c(=O)cc(C(F)(F)F)n(C)c3=O)cc12` [Example 519, Acetic acid, {{2-{5-[3,6-dihydro-3-methyl-2,6-dioxo-4-(trifluoromethyl)-1(2H)-pyrimidinyl]-1,2-benzisothiazol-3-yl}-p-tolyl}oxy}-, nonyl ester], the “herbicidal effect rating, CYPSE” value in series [1] (Rate 0.0320 kg/ha), in series [1] (Rate 0.0620 kg/ha), in series [1] (Rate 0.1250 kg/ha) and in series [1] (Rate 0.2500 kg/ha) was 0.0 each time. For the same molecule, the “herbicidal effect rating, SAGPY” value in series [2] (Rate 0.0320 kg/ha), in series [2] (Rate 0.0620 kg/ha), in series [2] (Rate 0.1250 kg/ha) and in series [2] (Rate 0.2500 kg/ha) was 0.0 in each case. In addition, the “herbicidal effect rating, MOOVA” value in series [3] (Rate 0.0320 kg/ha), in series [3] (Rate 0.0620 kg/ha), in series [3] (Rate 0.1250 kg/ha) and in series [3] (Rate 0.2500 kg/ha) was 9.0 each time. In addition, the “herbicidal effect rating ORYSAT” value in series [4] (Rate 0.0320 kg/ha) came to 2.0; in series [4] (Rate 0.0620 kg/ha), 4.0; in series [4] (Rate 0.1250 kg/ha) it was 4.5; in series [4] (Rate 0.2500 kg/ha), 4.0. Besides, the “herbicidal effect rating, ECHORC” value is given as 2.0 in series [5] (Rate 0.0320 kg/ha), 4.0 in series [5] (Rate 0.0620 kg/ha), 6.5 in series [5] (Rate 0.1250 kg/ha) and 9.0 in series [5] (Rate 0.2500 kg/ha). Also, the “herbicidal effect rating, CYPIR” value in series [6] (Rate 0.0320 kg/ha) stood at 0.0; in series [6] (Rate 0.0620 kg/ha), 0.0; in series [6] (Rate 0.1250 kg/ha), 2.0; in series [6] (Rate 0.2500 kg/ha) it was 6.0.

With `C=CC(CCCC)OC(=O)COc1ccc(C)cc1-c1nsc2ccc(-n3c(=O)cc(C(F)(F)F)n(C)c3=O)cc12` (stereo not drawn) [Example 520, Acetic acid, {{2-{5-[3,6-dihydro-3-methyl-2,6-dioxo-4-(trifluoromethyl)-1(2H)-pyrimidinyl]-1,2-benzisothiazol-3-yl}-p-tolyl}oxy}-, 1-vinylpentyl ester], the “herbicidal effect rating, CYPSE” value in series [1] (Rate 0.0320 kg/ha), in series [1] (Rate 0.0620 kg/ha), in series [1] (Rate 0.1250 kg/ha) and in series [1] (Rate 0.2500 kg/ha) was 0.0 in each case. Also, the “herbicidal effect rating, SAGPY” value in series [2] (Rate 0.0320 kg/ha), in series [2] (Rate 0.0620 kg/ha), in series [2] (Rate 0.1250 kg/ha) and in series [2] (Rate 0.2500 kg/ha) was 0.0 each time. The “herbicidal effect rating, MOOVA” value in series [3] (Rate 0.0320 kg/ha), in series [3] (Rate 0.0620 kg/ha), in series [3] (Rate 0.1250 kg/ha) and in series [3] (Rate 0.2500 kg/ha) was 9.0 throughout. Moreover, the “herbicidal effect rating ORYSAT” value in series [4] (Rate 0.0320 kg/ha) turned out to be 2.0; in series [4] (Rate 0.0620 kg/ha), 3.5; in series [4] (Rate 0.1250 kg/ha), 4.5; in series [4] (Rate 0.2500 kg/ha), 3.0. The “herbicidal effect rating, ECHORC” value in series [5] (Rate 0.0320 kg/ha) amounted to 6.5; in series [5] (Rate 0.0620 kg/ha), 8.0; in series [5] (Rate 0.1250 kg/ha) it was 8.5; in series [5] (Rate 0.2500 kg/ha), 9.0. The “herbicidal effect rating, CYPIR” value was determined as 0.0 in series [6] (Rate 0.0320 kg/ha), 0.0 in series [6] (Rate 0.0620 kg/ha), 2.0 in series [6] (Rate 0.1250 kg/ha) and 4.0 in series [6] (Rate 0.2500 kg/ha).

Turning to `C=CCOCC(CC)(COCC=C)COC(=O)COc1ccc(C)cc1-c1nsc2ccc(-n3c(=O)cc(C(F)(F)F)n(C)c3=O)cc12` [Example 521, Acetic acid, {{2-{5-[3,6-dihydro-3-methyl-2,6-dioxo-4-(trifluoromethyl)-1(2H)-pyrimidinyl]-1,2-benzisothiazol-3-yl}-p-tolyl}oxy}-, 2,2-bis-[(allyloxy)methyl]butyl ester], the “herbicidal effect rating, CYPSE” value in series [1] (Rate 0.0320 kg/ha), in series [1] (Rate 0.0620 kg/ha), in series [1] (Rate 0.1250 kg/ha) and in series [1] (Rate 0.2500 kg/ha) was 0.0 throughout. In addition, the “herbicidal effect rating, SAGPY” value in series [2] (Rate 0.0320 kg/ha), in series [2] (Rate 0.0620 kg/ha), in series [2] (Rate 0.1250 kg/ha) and in series [2] (Rate 0.2500 kg/ha) was 0.0 each time. Also, the “herbicidal effect rating, MOOVA” value in series [3] (Rate 0.0320 kg/ha) is recorded as 6.0; in series [3] (Rate 0.0620 kg/ha) it was 9.0; in series [3] (Rate 0.1250 kg/ha), 9.0; in series [3] (Rate 0.2500 kg/ha), 9.0. Further, the “herbicidal effect rating ORYSAT” value in series [4] (Rate 0.0320 kg/ha), in series [4] (Rate 0.0620 kg/ha), in series [4] (Rate 0.1250 kg/ha) and in series [4] (Rate 0.2500 kg/ha) was 0.0 each time. The “herbicidal effect rating, ECHORC” value in series [5] (Rate 0.0320 kg/ha) came to 2.0; in series [5] (Rate 0.0620 kg/ha), 2.0; in series [5] (Rate 0.1250 kg/ha) it was 4.0; in series [5] (Rate 0.2500 kg/ha), 4.0. The “herbicidal effect rating, CYPIR” value in series [6] (Rate 0.0320 kg/ha) is 0.0; in series [6] (Rate 0.0620 kg/ha) it was 0.0; in series [6] (Rate 0.1250 kg/ha), 0.0; in series [6] (Rate 0.2500 kg/ha) it was 2.0.
